Here are results for one compound from ChEMBL document CHEMBL4177580, “New 5-HT1A, 5HT2A and 5HT2C receptor ligands containing a picolinic nucleus: Synthesis, in vitro and in vivo pharmacological evaluation” (Bioorg Med Chem, 2017).

The subject of test [1] is Mus musculus. As to the kind of experiment: Inhibition of 8-OH-DPAT-induced hypothermia in Swiss albino mouse at 0.1 mg/kg, ip measured after 120 mins post dose co-treated with 8-OH-DPAT. Format: functional, organism-based.
The subject of test [2] is Rattus norvegicus. The experiment in a line: In-vivo 5-HT1A receptor agonist activity in Wistar rat assessed as induction of lower lip retraction by measuring lower lip retraction score at 0.3 mg/kg, ip dosed 15 mins before test (reference value: 0.0 +/- 0.0).
In test [3] the test system is Rattus norvegicus. As to the kind of experiment: In-vivo 5-HT1A receptor antagonist activity in Wistar rat assessed as reduction in 8-OH-DPAT-stimulated induction of lower lip retraction by measuring lower lip retraction score at 0.3 mg/kg, ip dosed 15 mins before test (reference value: 2.875 +/- 0.08183).

Calls of active or inactive are those of the source. The calls are words filed in the database; no cut-off is given here.

Take `COc1ccccc1N1CCN(CCN(C(=O)C2CCCCC2)c2ccccn2)CC1` [WAY-100,635]: in test [1], the inhibition result was “Active”. For the same compound, the Activity_index in test [2] is on record as 0; in test [3], 1.667.
